In patent US11083725B2 (priority 2014, dated 2021):

Tested on: NHBE cells
Experiment: Biolog metabolic array: substrate use by NHBE cells with or without CA09 infection
Format: cell-based, human
Conditions: for Substrate use, 590 nm absorbance normalized to zero hour, 1 hr: Biolog PMM2, 1 hr; for Substrate use, 590 nm absorbance normalized to zero hour, 5 hr: Biolog PMM2, 5 hr; for Substrate use, 590 nm absorbance normalized to zero hour, 7 hr: Biolog PMM2, 7 hr
[1] = Control (uninfected) NHBE cells
[2] = Virus (CA09-infected NHBE cells, MOI 1)
[3] = Virus: CA09-infected NHBE cells, MOI 1, Biolog PMM2
[4] = Virus (CA09-infected, MOI 1) NHBE cells

SMILES	590 nm absorbance normalized to zero hour (substrate use), 1 hr [1]	590 nm absorbance normalized to zero hour (substrate use), 2 hr [1]	590 nm absorbance normalized to zero hour (substrate use), 3 hr [1]	590 nm absorbance normalized to zero hour (substrate use), 4 hr [1]	590 nm absorbance normalized to zero hour (substrate use), 6 hr [1]	590 nm absorbance normalized to zero hour (substrate use), 8 hr [1]	590 nm absorbance normalized to zero hour (substrate use), 9 hr [1]	590 nm absorbance normalized to zero hour (substrate use), 10 hr [1]	590 nm absorbance normalized to zero hour (substrate use), 11 hr [1]	Substrate use, 590 nm absorbance normalized to zero hour, 1 hr [1]	Substrate use, 590 nm absorbance normalized to zero hour, 5 hr [1]	Substrate use, 590 nm absorbance normalized to zero hour, 7 hr [1]	590 nm absorbance normalized to zero hour (substrate use), 1 hr [3]	590 nm absorbance normalized to zero hour (substrate use), 2 hr [3]	590 nm absorbance normalized to zero hour (substrate use), 3 hr [3]	590 nm absorbance normalized to zero hour (substrate use), 4 hr [3]	590 nm absorbance normalized to zero hour (substrate use), 5 hr [3]	590 nm absorbance normalized to zero hour (substrate use), 6 hr [3]	590 nm absorbance normalized to zero hour (substrate use), 7 hr [3]	590 nm absorbance normalized to zero hour (substrate use), 8 hr [3]	further results
CCCCCC(=O)O [Hexanoic Acid]	1.35	1.47	2.74	2.80	1.04	4.11	4.10	4.13	3.16	1.35	1.18	4.15	0.25	0.28	0.31	0.33	0.36	0.37	0.37	0.38	590 nm absorbance normalized to zero hour (substrate use), 1 hr [2]: 0.25; 590 nm absorbance normalized to zero hour (substrate use), 2 hr [2]: 0.28; 590 nm absorbance normalized to zero hour (substrate use), 3 hr [2]: 0.31; 590 nm absorbance normalized to zero hour (substrate use), 4 hr [2]: 0.33; 590 nm absorbance normalized to zero hour (substrate use), 5 hr [2]: 0.36; 590 nm absorbance normalized to zero hour (substrate use), 6 hr [2]: 0.37; 590 nm absorbance normalized to zero hour (substrate use), 7 hr [2]: 0.37; 590 nm absorbance normalized to zero hour (substrate use), 8 hr [2]: 0.38; 590 nm absorbance normalized to zero hour (substrate use), 9 hr [2]: 0.36; 590 nm absorbance normalized to zero hour (substrate use), 10 hr [2]: 0.40; 590 nm absorbance normalized to zero hour (substrate use), 11 hr [2]: 0.41; 590 nm absorbance normalized to zero hour (substrate use), 9 hr [3]: 0.36; 590 nm absorbance normalized to zero hour (substrate use), 10 hr [3]: 0.40; 590 nm absorbance normalized to zero hour (substrate use), 11 hr [3]: 0.41
O=c1[nH]cnc2c1ncn2[C@@H]1O[C@H](CO)[C@@H](O)[C@H]1O [Inosine]	3.56	5.67	2.78	4.11	2.23	4.46	6.41	6.92	5.14	3.56	4.02	6.19	1.16	1.78	2.23	2.45	3.06	3.30	3.54	3.88	590 nm absorbance normalized to zero hour (substrate use), 1 hr [4]: 1.16; 590 nm absorbance normalized to zero hour (substrate use), 2 hr [4]: 1.78; 590 nm absorbance normalized to zero hour (substrate use), 3 hr [4]: 2.23; 590 nm absorbance normalized to zero hour (substrate use), 4 hr [4]: 2.45; 590 nm absorbance normalized to zero hour (substrate use), 5 hr [4]: 3.06; 590 nm absorbance normalized to zero hour (substrate use), 6 hr [4]: 3.30; 590 nm absorbance normalized to zero hour (substrate use), 7 hr [4]: 3.54; 590 nm absorbance normalized to zero hour (substrate use), 8 hr [4]: 3.88; 590 nm absorbance normalized to zero hour (substrate use), 9 hr [4]: 4.33; 590 nm absorbance normalized to zero hour (substrate use), 10 hr [4]: 3.83; 590 nm absorbance normalized to zero hour (substrate use), 11 hr [4]: 4.20; 590 nm absorbance normalized to zero hour (substrate use), 9 hr [3]: 4.33; 590 nm absorbance normalized to zero hour (substrate use), 10 hr [3]: 3.83; 590 nm absorbance normalized to zero hour (substrate use), 11 hr [3]: 4.20
O=C[C@H](O)[C@@H](O)[C@@H](O)CO [L-Arabinose]	1.72	2.30	2.99	3.04	2.95	3.74	4.05	4.01	4.09	1.72	3.33	3.87	1.79	2.45	3.01	3.10	3.49	3.66	3.82	4.01	590 nm absorbance normalized to zero hour (substrate use), 1 hr [4]: 1.79; 590 nm absorbance normalized to zero hour (substrate use), 2 hr [4]: 2.45; 590 nm absorbance normalized to zero hour (substrate use), 3 hr [4]: 3.01; 590 nm absorbance normalized to zero hour (substrate use), 4 hr [4]: 3.10; 590 nm absorbance normalized to zero hour (substrate use), 5 hr [4]: 3.49; 590 nm absorbance normalized to zero hour (substrate use), 6 hr [4]: 3.66; 590 nm absorbance normalized to zero hour (substrate use), 7 hr [4]: 3.82; 590 nm absorbance normalized to zero hour (substrate use), 8 hr [4]: 4.01; 590 nm absorbance normalized to zero hour (substrate use), 9 hr [4]: 4.41; 590 nm absorbance normalized to zero hour (substrate use), 10 hr [4]: 4.50; 590 nm absorbance normalized to zero hour (substrate use), 11 hr [4]: 4.78; 590 nm absorbance normalized to zero hour (substrate use), 9 hr [3]: 4.41; 590 nm absorbance normalized to zero hour (substrate use), 10 hr [3]: 4.50; 590 nm absorbance normalized to zero hour (substrate use), 11 hr [3]: 4.78
C[C@@H]1OC(O)[C@@H](O)[C@H](O)[C@@H]1O (stereo partly drawn) [L-Fucose]	0.10	0.20	0.18	0.18	0.26	0.27	0.26	0.24	0.26	0.10	0.22	0.25	0.21	0.28	0.33	0.35	0.42	0.45	0.47	0.50	590 nm absorbance normalized to zero hour (substrate use), 0 hr [1]: 1.00; Substrate use, 590 nm absorbance normalized to zero hour, 0 hr (Control (uninfected) NHBE cells, Biolog PMM2, 0 hr): 1.00; 590 nm absorbance normalized to zero hour (substrate use), 0 hr [2]: 1.00; 590 nm absorbance normalized to zero hour (substrate use), 1 hr [2]: 0.21; 590 nm absorbance normalized to zero hour (substrate use), 2 hr [2]: 0.28; 590 nm absorbance normalized to zero hour (substrate use), 3 hr [2]: 0.33; 590 nm absorbance normalized to zero hour (substrate use), 4 hr [2]: 0.35; 590 nm absorbance normalized to zero hour (substrate use), 5 hr [2]: 0.42; 590 nm absorbance normalized to zero hour (substrate use), 6 hr [2]: 0.45; 590 nm absorbance normalized to zero hour (substrate use), 7 hr [2]: 0.47; 590 nm absorbance normalized to zero hour (substrate use), 8 hr [2]: 0.50; 590 nm absorbance normalized to zero hour (substrate use), 9 hr [2]: 0.54; 590 nm absorbance normalized to zero hour (substrate use), 10 hr [2]: 0.57; 590 nm absorbance normalized to zero hour (substrate use), 11 hr [2]: 0.61; 590 nm absorbance normalized to zero hour (substrate use), 0 hr [3]: 1.00; 590 nm absorbance normalized to zero hour (substrate use), 9 hr [3]: 0.54; 590 nm absorbance normalized to zero hour (substrate use), 10 hr [3]: 0.57; 590 nm absorbance normalized to zero hour (substrate use), 11 hr [3]: 0.61
